Each structure is given as a SMILES string.

T1 sequence (P02769 25-607): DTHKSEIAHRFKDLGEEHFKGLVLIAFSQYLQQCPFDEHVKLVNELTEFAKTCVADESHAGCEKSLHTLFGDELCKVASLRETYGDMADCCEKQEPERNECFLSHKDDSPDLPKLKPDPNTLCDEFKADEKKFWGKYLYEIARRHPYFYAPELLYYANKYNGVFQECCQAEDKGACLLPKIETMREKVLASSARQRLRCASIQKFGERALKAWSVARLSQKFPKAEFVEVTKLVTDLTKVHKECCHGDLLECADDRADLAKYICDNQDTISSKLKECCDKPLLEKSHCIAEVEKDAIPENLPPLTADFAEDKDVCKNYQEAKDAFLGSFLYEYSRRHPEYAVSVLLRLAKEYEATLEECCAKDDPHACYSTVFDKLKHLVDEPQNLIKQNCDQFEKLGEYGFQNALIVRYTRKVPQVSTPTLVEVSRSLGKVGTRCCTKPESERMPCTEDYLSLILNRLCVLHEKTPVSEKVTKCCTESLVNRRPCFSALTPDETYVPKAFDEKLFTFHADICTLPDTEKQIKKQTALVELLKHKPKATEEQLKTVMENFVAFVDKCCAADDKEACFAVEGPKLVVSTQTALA

The target of one series is Recombinant human glycogen synthase kinase 3β (Homo sapiens, UniProt P49841). Nature of the series: GSK-3β inhibition. It is filed as biochemical. The conditions noted are these: recombinant human GSK-3β, GS-2 62.5 μM, ATP 12.5 μM, 30 min at 30° C. The method, then: The GSK-3β activity was determined by incubation of a mixture of recombinant human GSK-3 enzyme, a phosphate source and GSK-3 substrate in the presence and in the absence of the corresponding test compound, and by measuring the GSK-3 activity of this mixture.
Sequence of Recombinant human glycogen synthase kinase 3β (P49841 whole entry): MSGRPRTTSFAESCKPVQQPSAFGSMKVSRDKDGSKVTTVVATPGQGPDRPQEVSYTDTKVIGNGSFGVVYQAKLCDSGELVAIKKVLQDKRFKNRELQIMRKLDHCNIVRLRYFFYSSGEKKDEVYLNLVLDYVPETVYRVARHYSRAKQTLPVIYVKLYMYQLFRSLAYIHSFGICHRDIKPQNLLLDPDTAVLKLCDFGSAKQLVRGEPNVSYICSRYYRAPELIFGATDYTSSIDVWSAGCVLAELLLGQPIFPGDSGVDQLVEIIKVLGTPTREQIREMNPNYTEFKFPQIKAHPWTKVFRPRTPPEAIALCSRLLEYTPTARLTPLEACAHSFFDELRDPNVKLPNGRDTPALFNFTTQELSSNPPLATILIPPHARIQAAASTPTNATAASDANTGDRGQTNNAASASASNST
The final assay volume was 20 μl. After incubation for 30 minutes at 30° C., 15 μl aliquots were spotted onto P81 phosphocellulose papers. Filters were washed four times for at least 10 minutes each and counted with 1.5 ml of scintillation cocktail in a scintillation counter.
As to `COc1ccc(Cn2sc(=O)n(Cc3ccccc3)c2=O)cc1` [Compound 7, 4-Benzyl-2-(4-methoxybenzyl)-[1,2,4]thiadiazolidine-3,5-dione], the 50% inhibitory concentration (IC50) was less than 50 µM.
Still for that read-out and setting: the result for `O=c1sn(C23CC4CC(CC(C4)C2)C3)c(=O)n1Cc1ccccc1` [Compound 3, 2-(1-adamantyl)-4-benzyl-[1,2,4]thiadiazolidine-3,5-dione] reads more than 50 µM; that for `O=c1sn(-c2ccccc2Cc2ccccc2)c(=O)n1Cc1ccccc1` [Compound 9, 4-Benzyl-2-(2-benzyl-phenyl)-[1,2,4]thiadiazolidine-3,5-dione], 8 µM; that for `O=c1sn(C(c2ccccc2)c2ccccc2)c(=O)n1Cc1ccccc1` [Compound 6, 4-Benzyl-2-diphenylmethyl-1,2,4-thiadiazolidine-3,5-dione], 2 µM.
On the same count and under the same terms, the result for `O=c1sn(CCc2ccccc2)c(=O)n1Cc1ccccc1` [Compound 1, 2-Phenethyl-4-benzyl-(1,2,4)thiadiazolidine-3,5-dione] reads 3 µM.
Same read-out and setting: the result for `O=c1sn(-c2ccc(Oc3ccccc3)cc2)c(=O)n1Cc1ccccc1` [Compound 10, 4-Benzyl-2-(4-phenoxyphenyl)-[1,2,4]thiadiazolidine-3,5-dione] reads 3 µM.
Consider `Cc1ccc(Cn2sc(=O)n(Cc3ccccc3)c2=O)cc1` [Compound 4, 4-Benzyl-2-(4-methyl-benzyl)-[1,2,4]thiadiazolidine-3,5-dione], for which the concentration for half-maximal inhibition (IC50) came out at 1.8 µM.
The same measure, in the same setting: as for `Cc1cccc(C(C)(C)C)c1-n1sc(=O)n(Cc2ccccc2)c1=O` [Compound 8, 4-Benzyl-2-(2-tert-butyl-6-methyl-phenyl)-(1,2,4)thiadiazolidine-3,5-dione], the figure is 3 µM; as for `O=c1sn(-c2ccc3c(c2)OCO3)c(=O)n1Cc1ccccc1` [Compound 5, 4-Benzyl 2-((3,4-methylenedioxy)phenyl)-[1,2,4]thiadiazolidine-3,5-dione], 4.2 µM.

The next series concerns the target T1, Bovine serum albumin (Fraction V) (Bos taurus, UniProt P02769).
T1 construct: Bovine serum albumin (Fraction V) (Sigma); purchased Sigma
Nature of the series: Binding to BSA (incubation, HPLC-UV/MS). In kind it is in vitro ADME. The note with it: compound and BSA 1 mM each, 30 minutes at room temperature. The method, then: The compounds (working solution at 1 mM) were incubated during 30 minutes at room temperature with Glutathione (Sigma) and Bovine serum albumin (Fraction V) (Sigma) at equimolecular concentrations (1 mM). After this time the solution was filtrated and analysed by HPLC-UV/MS.
HPLC was performed with a symmetry C18 (2.1×150 mm, 3.5 μm) column using a Waters Alliance 2695 with a 2996 photodiode array and ZQ2000 mass spectrometer used for the analytical separation and for UV and mass determination. The gradient used for the elution was: […]
Flux: 0.25 mL/min; temp: 30° C.; Detection: 250 nm; Injection Volume: 10 μL
Regarding `COc1ccc(Cn2sc(=O)n(Cc3ccccc3)c2=O)cc1` [Compound 7, 4-Benzyl-2-(4-methoxybenzyl)-[1,2,4]thiadiazolidine-3,5-dione], the “% unbinding compound, albumin” value is reported as 68.3%.
The same measure, in the same setting: the result for `O=c1sn(C23CC4CC(CC(C4)C2)C3)c(=O)n1Cc1ccccc1` [Compound 3, 2-(1-adamantyl)-4-benzyl-[1,2,4]thiadiazolidine-3,5-dione] reads 54.0%.
On the same count and under the same terms, the result for `O=c1sn(-c2ccccc2Cc2ccccc2)c(=O)n1Cc1ccccc1` [Compound 9, 4-Benzyl-2-(2-benzyl-phenyl)-[1,2,4]thiadiazolidine-3,5-dione] reads 91.4%; that for `O=c1sn(C(c2ccccc2)c2ccccc2)c(=O)n1Cc1ccccc1` [Compound 6, 4-Benzyl-2-diphenylmethyl-1,2,4-thiadiazolidine-3,5-dione], 84.0%; that for `O=c1sn(-c2cccc3ccccc23)c(=O)n1Cc1ccccc1` [Compound 2, 4-Benzyl-2-naphthalen-1-yl-[1,2,4]thiadiazolidine-3,5-dione], 98.0%.
As to `O=c1sn(CCc2ccccc2)c(=O)n1Cc1ccccc1` [Compound 1, 2-Phenethyl-4-benzyl-(1,2,4)thiadiazolidine-3,5-dione], the “% unbinding compound, albumin” value was found to be 80.2%.
For `O=c1sn(-c2ccc(Oc3ccccc3)cc2)c(=O)n1Cc1ccccc1` [Compound 10, 4-Benzyl-2-(4-phenoxyphenyl)-[1,2,4]thiadiazolidine-3,5-dione], the “% unbinding compound, albumin” value worked out at 98.9%.
Take `Cc1ccc(Cn2sc(=O)n(Cc3ccccc3)c2=O)cc1` [Compound 4, 4-Benzyl-2-(4-methyl-benzyl)-[1,2,4]thiadiazolidine-3,5-dione]: the “% unbinding compound, albumin” value is 67.2%.
Still for that read-out and setting: the result for `Cc1cccc(C(C)(C)C)c1-n1sc(=O)n(Cc2ccccc2)c1=O` [Compound 8, 4-Benzyl-2-(2-tert-butyl-6-methyl-phenyl)-(1,2,4)thiadiazolidine-3,5-dione] reads 62.3%; that for `O=c1sn(Cc2ccccc2)c(=O)n1Cc1ccccc1` [2,4-dibenzyl-1,2,4-thiadiazolidine-3,5-dione, reference compound], 57.0%.
On the same count and under the same terms, as for `O=c1sn(-c2ccc3c(c2)OCO3)c(=O)n1Cc1ccccc1` [Compound 5, 4-Benzyl 2-((3,4-methylenedioxy)phenyl)-[1,2,4]thiadiazolidine-3,5-dione], the figure is 65.5%.

Tested on in another series: not listed separately
Nature of the series: Brain permeation and pharmacokinetics after oral and intravenous administration. The note with it: both sexes, C57/BL6, mouse, plasma; mice, oral 20 mg/kg vs intravenous 2 mg/kg. In kind it is in vivo, C57/BL6 mice. The method, then:
C57/BL6 mice (15-30 g) from Charles River laboratories Spain were used in this study. […] Water was available ad libitum. Animals were fasted for 4 hours before treatment, but with water ad libitum. They were fed 2 hours after administration.
The route of administration was a single oral administration at […] (10 mL/kg) and single intravenous administration at 2 mg/kg (10 mL/kg). An additional experiment was performed at 200 mg/kg by the oral route only to determine proportionality of absorption.
Blood was heparinized, and after centrifugation (3000 rpm, 10 mins, 5° C.), two plasma aliquots stored at −20° C. and −30° C. until analysis (HPLC/MS-MS).
For `O=c1sn(-c2cccc3ccccc23)c(=O)n1Cc1ccccc1` [Compound 2, 4-Benzyl-2-naphthalen-1-yl-[1,2,4]thiadiazolidine-3,5-dione], the bioavailability amounted to 31.9%.

The same series, now with this note: both sexes, C57/BL6, mouse, plasma; mice, oral administration of 20 mg/kg.
`O=c1sn(-c2cccc3ccccc23)c(=O)n1Cc1ccccc1` [Compound 2, 4-Benzyl-2-naphthalen-1-yl-[1,2,4]thiadiazolidine-3,5-dione]: the half-life was 6 h.

Still in this series, the particulars now being: both sexes, C57/BL6, mouse; mice, single oral dose 20 mg/kg, plasma.
`O=c1sn(-c2cccc3ccccc23)c(=O)n1Cc1ccccc1` [Compound 2, 4-Benzyl-2-naphthalen-1-yl-[1,2,4]thiadiazolidine-3,5-dione] came in with a Cmax of 905 ng/mL.

Still in this series, the particulars now being: both sexes, C57/BL6, mouse; mice, single oral dose 200 mg/kg, plasma.
As for `O=c1sn(-c2cccc3ccccc23)c(=O)n1Cc1ccccc1` [Compound 2, 4-Benzyl-2-naphthalen-1-yl-[1,2,4]thiadiazolidine-3,5-dione], the highest level (Cmax) was 9060 ng/mL.

Staying with this series, now noted: mice, after oral administration.
Turning to `O=c1sn(-c2cccc3ccccc23)c(=O)n1Cc1ccccc1` [Compound 2, 4-Benzyl-2-naphthalen-1-yl-[1,2,4]thiadiazolidine-3,5-dione], the “Absorption from the GI tract” value is on record as “quickly absorbed”.

The series is the same for the next values; noted with them: mice, both after oral and intravenous administration.
Consider `O=c1sn(-c2cccc3ccccc23)c(=O)n1Cc1ccccc1` [Compound 2, 4-Benzyl-2-naphthalen-1-yl-[1,2,4]thiadiazolidine-3,5-dione], for which the “Levels in the brain” value was “detected in the brain”.

Tested on in another series: not given
Experiment: not given
Conditions: not given
As for `O=c1sn(C23CC4CC(CC(C4)C2)C3)c(=O)n1Cc1ccccc1` [Compound 3, 2-(1-adamantyl)-4-benzyl-[1,2,4]thiadiazolidine-3,5-dione], the melting point came to 128.8 °C.
On the same count and under the same terms, as for `O=c1sn(-c2ccccc2Cc2ccccc2)c(=O)n1Cc1ccccc1` [Compound 9, 4-Benzyl-2-(2-benzyl-phenyl)-[1,2,4]thiadiazolidine-3,5-dione], the figure is 154.9 °C; as for `O=c1sn(C(c2ccccc2)c2ccccc2)c(=O)n1Cc1ccccc1` [Compound 6, 4-Benzyl-2-diphenylmethyl-1,2,4-thiadiazolidine-3,5-dione], 111.5 °C.
On to `O=c1sn(-c2ccc(Oc3ccccc3)cc2)c(=O)n1Cc1ccccc1` [Compound 10, 4-Benzyl-2-(4-phenoxyphenyl)-[1,2,4]thiadiazolidine-3,5-dione], for which the melting point was found to be 88.8 °C.
Take `Cc1cccc(C(C)(C)C)c1-n1sc(=O)n(Cc2ccccc2)c1=O` [Compound 8, 4-Benzyl-2-(2-tert-butyl-6-methyl-phenyl)-(1,2,4)thiadiazolidine-3,5-dione]: the melting point is 89.8 °C.

For orientation: IC50 means the point on the concentration scale where inhibition reaches its midpoint. The term bioavailability denotes the share of a dose that reaches the circulation, judged against a reference dose that is usually intravenous. In general, half-life refers to how long it takes for the measured level to halve. High values mean slow decline, low ones rapid decline. As usually defined, the Cmax is the maximum level reached in the sampled fluid or tissue. Usually melting point stands for the temperature of the solid-liquid transition.
